Measured values taken from patent publication US20240024372A1, “COMPOUNDS AND METHODS TO TREAT CYSTIC FIBROSIS” (City of Hope, priority 2020, published 2024).

Tested on: HuBEC cells
Experiment: Uptake of BODIPY-labeled exosomes by HuBEC (light microscopy)
Assay type: cell-based, human
Conditions: HuBEC pre-treated with 200 μM Genistein, 37° C., 30 minutes, then BODIPY-labeled MSC-derived CFZF-VPR exosomes 3 h
Procedure: FIGS. 7A-7B show exosome uptake inhibition. FIG. 7A: To study the pathway of exosome uptake, HuBEC cells were pre-treated with 200 μM of Genistein and incubated at 37° C. for 30 minutes before exosome addition, and then incubated with BODIPY-labeled exosomes at 37° C. for 3 h. FIG. 7B: Uptake was quantified by determining the percentage of BODIPY-fluorescence intensity.
Exosome labeling. Exosomal membrane was labeled with BODIPY TR ceramide, according to the manufacturer's protocol (Molecular Probes/Invitrogen Life Technologies, Carlsbad, California, USA). Briefly, 5e+10 exosomes were stained with 10 μmol/L BODIPY TR ceramide. Excess fluorescent dye was removed by using Exosome Spin Columns (Life Technologies, Carlsbad, California, USA). BODIPY-labeled exosomes were dropped on 10e+3 cells and incubated in exosome depleted medium at 37° C. and 5% CO2. Bodipy-labeled exosomes uptake was evaluated by light microscopy.
Light microscopy and imaging. Cells were cultivated fixed with BD cytofix/Cytoperm™ fixation/permeabilization Kit (Cat. No. 554715 BD bioscience, Franklin Lakes, NJ, USA) at room temperature for 20 minutes and then stained with fluorescent 488-Phalloidin (green) for actin using the manufacturer's recommendations (Molecular Probes/Invitrogen Life Technologies). Fluorescence images were collected on Zeiss LSM-700 confocal microscope. […]

O=c1c(-c2ccc(O)cc2)coc2cc(O)cc(O)c12 [genistein]
inhibition of exosome uptake (BODIPY-fluorescence intensity): inhibition of the MSC derived CFZF-VPR exosome uptake
